Measured values taken from US9078864B2, “Agonists for antimicrobial peptide systems” (priority 2008, dated 2015).
Entries after “also recorded” stand apart in the source; their conditions may differ.

Experiments:
[1] = system: PBA and butyrate induced CAMP gene expression; assay: Inhibition of PBA and butyrate induced CAMP gene expression by cycloheximide in VA10 cells; type: cell-based, human; conditions: 20 μg/ml one hour prior to stimulation, 24 hours
Experimental: VA10 cells were treated with 4 mM PBA or butyrate (BA) in the presence or absence of 20 μg/ml cycloheximide. CAMP mRNA levels were determined by real time RT-PCR. Individual samples were normalized to total RNA input. Results were normalized to expression in control samples (solvent) where controls were given the arbitrary value of one. Normalized data is plotted as mean plus standard error of the mean from at least three independent experiments. *: p<0.05; **: p<0.01; ***: p<0.001.
In order to assess whether the PBA and butyrate induction pathways of CAMP gene expression are direct, VA10 cells were treated with PBA or butyrate in the presence and absence of cycloheximide (CHX). After 24 hours of incubation, total RNA was isolated and CAMP mRNA levels measured using real time RT-PCR.

[2] = system: CAMP gene, encoding LL-37; assay: CAMP (LL-37) mRNA expression in VA10 lung epithelial cells, real time RT-PCR; type: cell-based, human; conditions: for CAMP mRNA expression: 4 mM
Experimental: LL-37 expression in lung epithelial cells treated with different agents Lung epithelial cells (VA 10) were grown to confluency under standard conditions and the agents to be tested added at the indicated concentrations (see below). mRNA was isolated 24 hours after treatment and measured by real time reverse transcription PCR.
Six-well plates were seeded with 1.0×10^6 cells per well and grown for two days. Medium was then exchanged and different wells were left untreated, supplemented with 2 mM sodium butyrate or 2 mM sodium 4-phenylbutyrate. The cells were incubated for 48 h and total RNA was prepared using the RNEasy kit (Qiagen). Total RNA concentrations were measured using the Quant-iT RiboGreen RNA assay kit (Invitrogen). Superscript III first-strand synthesis system (Invitrogen) was used to synthesize cDNA using random primers according to the protocol of the manufacturer. […] Results were normalized to total RNA quantity, presented as relative fold induction of untreated control cells.
Total RNA was isolated from the cells and CAMP mRNA expression levels analyzed by real time RT-PCR.

[3] = system: PBA induced CAMP gene expression; assay: Inhibition of PBA induced CAMP gene expression by MAP kinase inhibitors in VA10 cells; type: cell-based, human; conditions: 20 μM inhibitor one hour prior to 4 mM PBA, 24 hours
Experimental: FIG. 6B. […] CAMP mRNA levels were determined by real time RT-PCR. Individual samples were normalized to total RNA input. Results were normalized to expression in control samples where controls were given the arbitrary value of one. Normalized data is plotted as mean+SE from three independent experiments. *: P<0.05; **: P<0.01; ***: P<0.001
The effect of inhibitors for c-Jun N-terminal kinase (JNK), p38 kinase and extracellular signal-regulated kinase ½ (ERK½) on PBA induced CAMP gene expression were also investigated as shown in FIG. 6B. One hour prior to stimulation with 4 mM PBA, VA10 cells were pre incubated with 20 μM SP600125, SB203580 or U0126 to inhibit the respective kinases. After 24 hours of incubation, total RNA was isolated and analyzed by real time RT-PCR for CAMP mRNA.

LL-37 mRNA = conditions: colonocytes in vitro; cited from earlier work
[4] = system: shigellosis; CAP-18 (the rabbit homologue of LL-37); conditions: rabbits; cited from earlier work
defensin = conditions: similar concentrations, FIG. 7 of US2002-0076393; cited from earlier work
[5] = cited from earlier work; for safety of topical (enema) dosing: 528 mg/day to 1.12 g/day, 2-6 weeks, adult IBD patients
cathelicidin = conditions: 4000 IU/d oral for 21 days, atopic dermatitis subjects; cited from earlier work
[6] = system: CAMP mRNA in HT-29 (Human colonic adenocarcinoma cell line); assay: CAMP gene expression by PBA in HT-29 cells; type: cell-based; conditions: 4 mM, 8, 24 and 48 hours
Experimental: (§1) FIG. 3: Induction of CAMP gene mRNA expression by PBA. A) VA10 cells were stimulated with the indicated concentrations of PBA or solvent (Control) for 24 hours. B) VA10 cells were stimulated with 4 mM PBA or treated with solvent alone and harvested after the indicated period of time. C) A498, HT-29 and U937 cells were stimulated with 4 mM PBA or solvent only and harvested after the indicated period of time. CAMP mRNA levels were determined by real time RT-PCR. Individual samples were normalized to total RNA input. Results were normalized to expression in control samples where controls were given the arbitrary value of one. The normalized data is plotted as mean+SE from at least three independent experiments.
(§2) In order to investigate the effect of PBA on other cell lines, HT-29 (Human colonic adenocarcinoma cell line), […] (Human renal carcinoma cell line) and U937 (Human leukemic monocyte lymphoma cell line) were stimulated with 4 mM PBA for 8, 24 and 48 hours. Total RNA was isolated from the cells and CAMP mRNA expression levels analyzed by real time RT-PCR.

[7] = system: CAMP mRNA in A497 (Human renal carcinoma cell line); assay: CAMP gene expression by PBA in A497 cells; type: cell-based; conditions: 4 mM, 8, 24 and 48 hours
Experimental: as §1, §2

[8] = system: CAMP mRNA in U937 (Human leukemic monocyte lymphoma cell line); assay: CAMP gene expression by PBA in U937 cells; type: cell-based; conditions: 4 mM, 8, 24 and 48 hours
Experimental: as §1, §2

[9] = system: acetylation of histone H3 and H4 at the CAMP gene proximal promoter; assay: Histone H3 and H4 acetylation at the CAMP gene promoter, quantitative ChIP in VA10 cells; type: cell-based, human; conditions: 4 mM, 24 hours, listed as PBA
Experimental: FIG. 9: VA10 cells were stimulated with 4 mM of PBA or solvent alone (Control) for 24 hours. Acetylation of histone H3 and H4 was analyzed by quantitative ChIP using antibodies against the respective acetylated histones. Results were normalized to normal rabbit IgG and total input and plotted as fold precipitation over IgG. Normalized data is plotted as mean+SE from independent experiments (n=3).
The effect of PBA on acetylation of histone H3 and H4 by quantitative chromatin immunoprecipitation was assessed.

VDR co-activator genes = assay: VDR co-activator mRNA levels in VA10 cells, real time RT-PCR; type: cell-based, human; conditions: 4 mM, 24 hours
Experimental: (§3) VA10 cells were stimulated with 4 mM of PBA or solvent alone (Control) for 24 hours. mRNA levels of the respective VDR co-activators were determined by real time RT-PCR. Individual samples were normalized to total RNA input. Results were normalized to expression in control samples where controls were given the arbitrary value of one. Data is normalized to control and plotted as mean+SE from three independent experiments.
Hypothesizing that the synergistic effect between PBA and 1,25(OH)2D3 was due to an induction of VDR co-activator genes by PBA, we analyzed the effect of PBA on mRNA levels of several known VDR co-activator genes in VA10. […] These co-activators are therefore not involved in the PBA-induced effects on gene expression.

hBD-1 mRNA = hBD-1 mRNA expression in VA10 cells, real time RT-PCR; type: cell-based, human; conditions: 4 mM, 24 hours, compared with CAMP induction
Experimental: as §3, with “FIG. 11: Induction of hBD-1 mRNA expression by PBA. VA10” for “VA10”, “hours. hBD-1” for “hours.”, “levels” for “levels of the respective VDR co-activators”, “RT-PCR, CAMP induction shown for comparison.” for “RT-PCR.”, “from at least” for “from”
CAMP is not the only antimicrobial defense gene that is induced by PBA.

[10] = system: CAP-18 (the rabbit homologue to LL-37); assay: Shigella infected rabbits treated with glyceryl tributyrate, CAP-18 immunohistochemistry; type: in vivo; conditions: oral, 47 μmol/kg twice daily for 3 days, Shigella flexneri 2a
Experimental: Animal model: Inbred New Zealand White rabbits of either gender weighing 1.8 to 2 kg were used for the study. The animals were individually caged in a room maintained at 22-25° C. Before inclusion in the study, health status of the rabbits was determined by physical examination, culture of stool and rectal swab specimens and fecal parasitic examination. Healthy coccidia-free rabbits that were also free of enteric pathogens (e.g. Salmonella, Shigella, Vibrio cholera) were studied. Rabbits were infected with Shigella and divided into two groups, one group was treated orally with glyceryl tributyrate and the other with saline. Expression of the CAP-18 peptide and its proform in colonic and rectal tissue specimens were analyzed in healthy rabbits, in untreated infected rabbits, in infected and healthy rabbits treated with glycerol tributyrate. For analyses of toxicity effects of glycerol tributyrate healthy rabbits were also treated with this compound.
Bacterial strain and inoculum preparation: The Shigella flexneri 2a strain was isolated from stool of a patient. The strain was positive for the Serény test and Congo red binding, reflecting invasive properties (Berkhoff, H. A. and Vinal, A. C., 1986, Avian Dis. 30, 117-121)) From this stock, bacteria were subcultured on trypticase soya agar (TSA; Becton Dickinson, Sparks, Md.) plates and cultured overnight at 37° C. […]

Structure (SMILES): C[C@@H]1C[C@@H]([C@H](O)CC2CC(=O)NC(=O)C2)C(=O)[C@@H](C)C1 [CHX, cycloheximide]
- PBA induced CAMP gene expression in presence of cycloheximide ([1]; 4 mM PBA): effectively blocked
- butyrate induced CAMP gene expression in presence of cycloheximide ([1]; 4 mM butyrate): effectively blocked

Structure (SMILES): CC(Cc1ccccc1)C(=O)O (stereo not drawn) [ST7, α-methylhydrocinnamate]
- CAMP mRNA expression ([2]; VA10 cells, 24 hours): significantly increased

Structure (SMILES): CCC(C)(C)C(=O)O [ST20, 2,2-dimethylbutyrate]
- CAMP mRNA expression ([2]; VA10 cells, 24 hours): no apparent effect

Structure (SMILES): N#CC(=C(/N)Sc1ccccc1N)/C(C#N)=C(\N)Sc1ccccc1N [U0126]
- PBA induced CAMP gene expression in presence of inhibitor [3]: significantly reduced

Structure (SMILES): CCCC(=O)[O-].[Na+] [butyrate, sodium butyrate]
- LL-37 mRNA expression (LL-37 mRNA): increases
- CAP-18 in the surface epithelium [4]: significant upregulation
- clinical illness and bacterial load in the stool [4]: reduced clinical illness and bacterial load in the stool
- activity in stimulating production of defensin relative to isoleucine (defensin): less active than isoleucine at similar concentrations
- safety of topical (enema) dosing [5]: safe with no obvious side effects
- safety of oral dosing ([5]; daily oral dose of 4 g, colonic-targeted tablets, 6 weeks, IBD patients): safe and well tolerated without any adverse effects

Structure (SMILES): CC(C)C(=O)O [isobutyrate]
- LL-37 mRNA expression (LL-37 mRNA): increases

Structure (SMILES): C=C1CC[C@H](O)C/C1=C/C=C1\CCC[C@]2(C)[C@@H]([C@H](C)CCCC(C)C)CC[C@@H]12 [oral vitamin D]
- cathelicidin expression in AD lesional skin (cathelicidin): statistically significant increase

Structure (SMILES): CCC(=O)O [propionate]
- LL-37 mRNA expression (LL-37 mRNA): increases

Structure (SMILES): O=C([O-])CCCc1ccccc1.[Na+] [sodium 4-phenylbutyrate]
- dose dependence of response at higher concentrations ([2]; 8 mM, earlier experiments, results not shown): ceased to be dose-dependent
- LL-37 mRNA expression (fold-induction of CAMP mRNA) ([2]; VA10 cells, 2 mM, 24 hours, compared with sodium butyrate 2 mM and vitamin D3 100 nM): more effective inducer of LL-37 mRNA expression than butyrate or vitamin D
- time and dose dependence of CAMP mRNA expression ([2]; VA10 cells, 4 mM over different time points, different concentrations for 24 hours): dependent on PBA dose and increased over time
- CAMP mRNA expression [6]: significantly increased
- CAMP mRNA expression [7]: significantly increased
- CAMP mRNA expression [8]: significantly increased
- histone H3 and H4 acetylation at the CAMP gene proximal promoter [9]: No significant differences; also recorded: No significant change
- mRNA levels of VDR co-activator genes (VDR co-activator genes): None of the genes were significantly upregulated
- hBD-1 mRNA expression (hBD-1 mRNA): induced, although at lower level than CAMP
- safety of topical (enema) dosing [5]: None of these studies reported any adverse effect or reactions

Structure (SMILES): CCCC(=O)OCC(COC(=O)CCC)OC(=O)CCC [tributyrylglycerol, glyceryl tributyrate]
- CAP-18 expression in surface epithelial cells of Shigella infected rabbits [10]: counteracted; also recorded: reverted and/or prevented
